From the NIST ThermoML archive (doi:10.1007/s10765-013-1539-3)

Experiment: wn = mass fraction of the nth substance listed
Settings: Gas, Steady Flow, w1 = 0.5

[HH] [hydrogen] + C
binary diffusion coefficient [m2/s]
Settings	250 K	280 K	320 K	400 K	480 K	560 K	640 K	720 K	800 K	900 K
100 kPa	5.3e-05	6.6e-05	8.3e-05	0.000124	0.000173	0.000227	0.00029	0.00036	0.000434	0.00054
4000 kPa	1.32e-05	1.84e-05	2.31e-05	3.62e-05	5.1e-05	6.7e-05	8.4e-05	0.000106	0.000129	0.000159
7000 kPa	6.3e-06	8.5e-06	1.17e-05	1.82e-05	2.52e-05	3.43e-05	4.35e-05	5.4e-05	6.5e-05	8.1e-05
10000 kPa	3.8e-06	5.4e-06	7.5e-06	1.2e-05	1.72e-05	2.3e-05	2.93e-05	3.61e-05	4.41e-05	5.42e-05
15000 kPa	2.91e-06	4.05e-06	5.8e-06	9.5e-06	1.36e-05	1.79e-05	2.28e-05	2.81e-05	3.37e-05	4.11e-05

[HH] [hydrogen] + CCC
binary diffusion coefficient [m2/s]
Settings	250 K	280 K	320 K	400 K	480 K	560 K	640 K	720 K	800 K	900 K
100 kPa	3.28e-05	4.01e-05	5e-05	7.4e-05	0.000101	0.000131	0.000164	0.0002	0.00024	0.000292
3500 kPa	–	–	–	1.6e-05	2.58e-05	3.56e-05	4.57e-05	5.63e-05	6.8e-05	8.3e-05
7000 kPa	–	–	–	4.5e-06	1.14e-05	1.7e-05	2.21e-05	2.78e-05	3.37e-05	4.24e-05
10500 kPa	–	–	–	2.98e-06	6.8e-06	1.07e-05	1.47e-05	1.83e-05	2.23e-05	2.83e-05
14000 kPa	–	–	–	2.72e-06	4.9e-06	7.89e-06	1.08e-05	1.37e-05	1.65e-05	2.04e-05

[HH] [hydrogen] + CC
binary diffusion coefficient [m2/s]
Settings	250 K	280 K	320 K	400 K	480 K	560 K	640 K	720 K	800 K	900 K
100 kPa	4.29e-05	5.2e-05	6.5e-05	9.5e-05	0.000131	0.00017	0.000212	0.000261	0.000313	0.000382
3500 kPa	–	–	1.46e-05	2.53e-05	3.6e-05	4.81e-05	6.2e-05	7.6e-05	9.1e-05	0.00011
7000 kPa	–	–	3.3e-06	1.15e-05	1.75e-05	2.4e-05	3.1e-05	3.81e-05	4.61e-05	5.59e-05
10500 kPa	–	–	2.4e-06	6.8e-06	1.13e-05	1.58e-05	2.04e-05	2.52e-05	3e-05	3.72e-05
14000 kPa	–	–	2.21e-06	5e-06	8.6e-06	1.2e-05	1.58e-05	1.94e-05	2.33e-05	2.83e-05
